# Where two headings read alike, the source gives them in different places. Marks after values point to notes of the source that are not given here.
# Legend:
# [1] = test system: Experimental Allergic Encephalomyelitis; assay: Experimental allergic encephalomyelitis, hindleg paralysis; format: in vivo, Female Lewis rats; conditions: 60 Mg/kg/day, p.o. days 0-4, 7-11, 14-18
# Protocol: EAE is induced in Female (Charles River) Lewis rats by a single intradermal injection of 0.1 ml of an encephalitogenic emulsion consisting of equial parts of a 50% w/v homogenate of guinea pig spinal cord and mid-brain in 0.5% aqueous phenol and Freund's complete adjuvant (4 mg/ml killed, dried M. butyricum) into a hindpaw (left) footpad. […] Any animal which becomes paralyzed during the course of the experiment is considered to have developed EAE whether or not the paralysis is permanent. Test compounds are administered daily beginning on the day of injection, for 19 days, exclusive of days 5, 6 12 and 13. Drug activity is determined by comparing the indicidence of EAE (paralysis) of the treated group with a control (vehicle) group. The level of significant difference between the treated groups and control groups is determined by a Chi-square test using a 2x2 contingency table. Body weight changes from day 0 are also statistically compared to the control group using a Student "t" test.
# 5-Lipoxygenase = target: T1, 5-Lipoxygenase (Rattus norvegicus, UniProt P12527); assay: 5-Lipoxygenase activity (5-HETE) in 10,000 x g supernatant of RBL-1 cells; format: biochemical; conditions: text b252; RBL-1 cell extracts; read-out: IC₅₀ 5-HETE synthesis
# T1 construct: The activities of these enzymes in extracts of RBL-1 cells were assayed; host or cells: RBL-1 cells, disrupted by nitrogen cavitation; 10,000 x g or 100,000 x g supernatant
# T1 sequence (P12527 1-673): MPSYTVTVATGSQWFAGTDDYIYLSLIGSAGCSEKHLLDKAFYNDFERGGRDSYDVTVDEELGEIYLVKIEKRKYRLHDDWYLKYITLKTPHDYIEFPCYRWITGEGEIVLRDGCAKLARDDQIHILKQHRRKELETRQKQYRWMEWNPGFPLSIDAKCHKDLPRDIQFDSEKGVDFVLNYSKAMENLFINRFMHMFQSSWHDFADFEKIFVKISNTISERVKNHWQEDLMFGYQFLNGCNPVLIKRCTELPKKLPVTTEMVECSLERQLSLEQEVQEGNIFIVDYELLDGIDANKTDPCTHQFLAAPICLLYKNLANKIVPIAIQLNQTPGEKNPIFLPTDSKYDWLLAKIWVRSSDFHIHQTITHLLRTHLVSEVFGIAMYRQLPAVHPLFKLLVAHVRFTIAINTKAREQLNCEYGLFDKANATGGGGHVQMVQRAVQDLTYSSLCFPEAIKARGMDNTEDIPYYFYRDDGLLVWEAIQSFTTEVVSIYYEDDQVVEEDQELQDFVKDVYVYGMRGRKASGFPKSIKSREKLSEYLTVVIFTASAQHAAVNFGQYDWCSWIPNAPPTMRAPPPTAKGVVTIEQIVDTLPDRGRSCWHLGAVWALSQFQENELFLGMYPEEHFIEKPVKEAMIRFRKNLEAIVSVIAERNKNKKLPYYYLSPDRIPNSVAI
# Protocol: (§4) Harvested cells were washed with 50 mM sodium phosphate buffer, pH 7.0, containing 1 mM EDTA and 0.1% gelatin, resuspended in fresh buffer (5 x 10⁷ cells/ml) and disrupted by nitrogen cavitation using the Parr bomb at 750 psi for 10 min. The broken cell extract was then centrifuged at 10,000 x g for 20 minutes and the supernatant centrifuged at 100,000 x g for 60 minutes. Aliquots (0.25 mls) of the supernatant were preincubated with or without drugs for 10 min, after which 10 ul CaCl₂ (50 mM) was added and the reaction was initiated with 2.5 ul of 2.5 mM arachidonic acid-1-¹⁴C (final concentration was 25 mM; specific activity 20,000 dpm/nmole). After incubation for 3 min at 37°C, the reaction was terminated by addition of 2 volumes (0.5 ml) ice cold acetone and the sample was allowed to deproteinize on ice for 10 min prior to centrifugation at 1,000 x g for 10 min. The deproteinized supernatant was adjusted to pH 3.5 with 2N formic acid and extracted with 2 volumes of ice cold ethyl acetate. […] Arachidonic acid, 5-HETE, di-HETE and PGD₂ were quantified with a Berthold LB 2832 autoscanner.
# [2] = test system: Arachidonic Acid-Induced Cellular Infiltration; assay: Arachidonic acid-induced air pouch inflammation; format: in vivo, Lewis rats; conditions: 100 mg/kg; 3 hours after arachidonic acid
# Text: (§1) In the following Examples where mice were used, they were male Balb/c mice (20-28 g), and where rats were used, they were male Lewis rats (180-210 g). All mice and rats were obtained from Charles River Breeding Laboratories, Kingston, N.Y. Within a single experiment, mice and rats were sex and age matched.
# (§2) The compounds of Formula (IA) were used either as the free base or in the appropriate salt form. Levamisole was used as the hydrochloride salt. The compounds were homogenized in 0.5% tragacanth. Compounds were administered by gavage at the indicated dose in a final volume of 10 ml/kg. Nordihydroguaiaretic acid (NDGA) was solubilized in dimethylacetamide and diluted with olive oil for subcutaneous administration.
# (§3) Rats were shaved on the dorsal flank, and then injected subcutaneously one day later with 20 ml of air to form a defined pouch, by the method of Sedgwick et al., J. Pathology, 141, 483-495 (1983). The air pouch was reinflated as necessary over the next 6 days. To assay anti-inflammatory activity, animals were treated orally with test compound or vehicle (10 ml/kg) one hour before injection of 2.0 ml of a 2.0% carrageenan suspension containing 200 units/ml penicillin and 100 »g/ml streptomycin into the air pouch. In other experiments, 5 ml of 0.1% arachidonic acid in 0.2 M bicarbonate buffer was injected two hours after drug treatment. Animals were sacrificed using CO₂ three hours after instillation of irritant. The exudate was then aspirated from the pouch and neutrophil count and differential cell count were measured.
# [3] = test system: Polymorphonuclear Leukocytes; assay: Mouse Carrageenan Peritonitis (PMN infiltration); format: in vivo, Balb/c mice; conditions: for % Change / PMN x 10⁻⁵/ml (mean ± S.D.): Table 1, p.o.
# Text: as §1, §2
# Mice were pretreated with either the test compound or vehicle one hour before the intraperitoneal injection of a 1.0% carrageenan suspension in saline (0.2 ml/ mouse). Mice were sacrificed by cervical dislocation two hours after injection, and 3.0 ml of phosphate buffered saline, without Ca⁺⁺ or Mg⁺⁺, was injected into the peritoneum. Following massage, a 2.0 ml aliquot of the lavage fluid was removed, and the total cell count determined on a Coulter counter and differential cell count determined by microscopic examination of Giesma-stained slides.
# Cyclooxygenase = Cyclooxygenase activity (PGD2) in 10,000 x g supernatant of RBL-1 cells; format: biochemical; conditions: text b252; RBL-1 cell extracts; read-out: IC₅₀ PGD₂ production
# Protocol: as §4
# [4] = test system: Carrageenan-Induced Cellular Infiltration; assay: Carrageenan-induced air pouch inflammation; format: in vivo, Lewis rats; conditions: 100 mg/kg; 3 hours after carrageenan
# Text: as §1, §2, §3
# [5] = test system: Production of PGE₂ by Mouse Peritoneal Exudate Cells; assay: PGE2 production by peritoneal macrophages; format: cell-based
# Protocol: For in vitro experiments, compounds were dissolved at appropriate concentrations in ethanol or DMSO (dimethylsulfoxide) (final concentration <1.0%) and then diluted to final concentrations using the buffers indicated in the text.
# Mice were injected intraperitoneally with 350 »g Corynebacterium parvum and the peritoneal exudate cell population was harvested 12-14 days later by peritoneal lavage with cold phosphate-buffered saline, and resuspended in Eagles minimal essential medium supplemented with 5% fetal calf serum. […] Test compounds were added (100 ul) to bring the final volume to 1.0 ml. Lipopolysaccharide (5 »g/ml) was then added to stimulate PGE₂ synthesis. After incubation at 37°C for 2 hours, cell-free supernatants were harvested, placed in polypropylene tubes and frozen at -20°C until assayed for their PGE₂ content using a commercial radioimmunoassay kit. IC₅₀ is the concentration that inhibits 50% of control activity.
smiles,measurement,setting,value
"Fc1ccc(-c2nc3n(c2-c2ccncc2)CCS3)cc1 [Compound 1, 5-(4-pyridyl)-6-(4-fluorophenyl)-2,3-dihydroimidazo[2,1-b]thiazole]",HINDLEG PARALYSIS - CUMULATIVE INCIDENCE DAY 9 TO 13,[1],10/12
same,HINDLEG PARALYSIS - CUMULATIVE INCIDENCE DAY 14 TO 18,[1],0/11**
same,IC50,5-Lipoxygenase,75 µM
same,Cellular Infiltrate (Total x 10⁻⁶) MN,[2],1.5 ± 1.1^d x 10⁻⁶
same,Cellular Infiltrate (Total x 10⁻⁶) PMN,[2],1.2 ± 0.7^e x 10⁻⁶
same,Exudate Volume,[2],2.6 ± 0.8 mL
same,ED50,"[3]; Mus musculus, Leukocyte, po, intraperitoneal carrageenan in mice, read-out: ED₅₀ (inhibition of PMN infiltration)",43.9 mg/kg
same,% Change,[3]; 25 mg/kg,-27^e %
same,% Change,[3]; 50 mg/kg,-56^c %
same,PMN x 10⁻⁵/ml (mean ± S.D.),[3]; 50 mg/kg,4.84 ± 3.01 x 10⁻⁵/ml
same,PMN x 10⁻⁵/ml (mean ± S.D.),"[3]; 100 mg/kg, 1 h before i.p. carrageenan, read 2 h later",2.48 ± 0.98 x 10⁻⁵/ml
same,% Change,"[3]; 100 mg/kg, PMN vs vehicle",-77^b %
same,IC50,Cyclooxygenase,100 µM
same,Cellular Infiltrate (Total x 10⁻⁶) MN,[4],5.5 ± 3.8^e x 10⁻⁶
same,Cellular Infiltrate (Total x 10⁻⁶) PMN,[4],2.6 ± 1.3^d x 10⁻⁶
same,Exudate Volume,[4],1.0 ± 0.9 mL
same,IC50,"[5]; Macrophage, read-out: IC₅₀ production of PGE₂ by inflammatory macrophages",0.7 µM
same,IC50,"[5]; Peritoneal macrophage, Table 10, LPS-stimulated, C. parvum-elicited peritoneal exudate cells, read-out: IC₅₀ (»M) production of PGE₂",0.7 µM
